For 8 compounds, GI50 and TGI results are on record in PubChem BioAssay (NCI).

Some test systems named below: OVCAR-3 ovarian; KM12 colon; SR leukemia; HOP-62 NSCLC; K-562 leukemia; DU-145 prostate; HOP-92 NSCLC; SK-MEL-5 melanoma; NCI/ADR-RES ovarian; OVCAR-8 ovarian.
Common to all, as to experiment: inhibition of tumour cell growth, NCI panel, 48 h

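Test compounds were applied to cells in 96-well plates for 48 hours at 5 doses. GI50 is the concentration that inhibits growth by half. The concentration for full growth arrest is given as TGI.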

Turning to `COC(=O)[C@H](Cc1cn(C)cn1)NC(=O)[C@H](CC(C)C)NC(=O)Nc1cc(C(F)(F)F)cc(C(F)(F)F)c1`, the GI50 is 2.23 µM with OVCAR-3 ovarian; over 10 µM in the experiment on KM12 colon; 2.59 µM with SR leukemia; over 10 µM with HOP-62 NSCLC; 6.41 µM with K-562 leukemia; over 10 µM with DU-145 prostate. For the same compound, the GI50 with HOP-92 NSCLC was over 10 µM; with SK-MEL-5 melanoma, over 10 µM; with NCI/ADR-RES ovarian it was over 10 µM; with OVCAR-8 ovarian, 9.54 µM. Also, the TGI in the experiment on OVCAR-3 ovarian was 4.82 µM; in the experiment with KM12 colon, over 10 µM; with SR leukemia it was 8.41 µM; in the experiment on HOP-62 NSCLC, over 10 µM; in the experiment with K-562 leukemia it was over 10 µM; in the experiment with DU-145 prostate it was over 10 µM. The TGI in the experiment with HOP-92 NSCLC, in the experiment on SK-MEL-5 melanoma, with NCI/ADR-RES ovarian and in the experiment on OVCAR-8 ovarian was over 10 µM throughout.

As to `CCOC(=O)Cc1csc(NC(=O)C(OC(=O)c2ccc(Cl)cc2)c2ccccc2)n1` (stereo not given), the GI50 was 17.8 µM with OVCAR-3 ovarian; 38.9 µM in the experiment on KM12 colon; 13.4 µM with SR leukemia; 44.1 µM in the experiment with HOP-62 NSCLC; 27.1 µM in the experiment with K-562 leukemia; 72.7 µM in the experiment on DU-145 prostate. For the same compound, the GI50 with HOP-92 NSCLC was 27.2 µM; in the experiment on SK-MEL-5 melanoma, 18 µM; in the experiment with NCI/ADR-RES ovarian it was 41.1 µM; in the experiment with OVCAR-8 ovarian, 64.8 µM. Also, the TGI in the experiment on OVCAR-3 ovarian was 41.9 µM; in the experiment with KM12 colon, over 100 µM; with SR leukemia it was 58.7 µM; with HOP-62 NSCLC, over 100 µM; in the experiment with K-562 leukemia, over 100 µM; with DU-145 prostate, over 100 µM. In addition, the TGI was over 100 µM with HOP-92 NSCLC, 36 µM with SK-MEL-5 melanoma, over 100 µM in the experiment on NCI/ADR-RES ovarian and over 100 µM with OVCAR-8 ovarian.

With `CCn1nc(C2CCN(C(=O)CCO)CC2)nc1-c1cnc(N)c(-c2nnc(C(C)(C)C)o2)n1`, the GI50 in the experiment on OVCAR-3 ovarian was 7.81 µM; in the experiment on KM12 colon, 14.9 µM; in the experiment with SR leukemia it was 15.5 µM; with HOP-62 NSCLC, 5.01 µM; in the experiment on K-562 leukemia, 27.8 µM; in the experiment on DU-145 prostate, 16.7 µM. The GI50 is 0.208 µM in the experiment on HOP-92 NSCLC, 11.5 µM in the experiment with SK-MEL-5 melanoma, 14.6 µM in the experiment on NCI/ADR-RES ovarian and 38.2 µM in the experiment with OVCAR-8 ovarian. The TGI is 38.4 µM in the experiment with OVCAR-3 ovarian; 45.1 µM with KM12 colon; over 88.4 µM in the experiment on SR leukemia; over 100 µM in the experiment on HOP-62 NSCLC; over 100 µM with K-562 leukemia; over 100 µM in the experiment with DU-145 prostate. Besides, the TGI in the experiment with HOP-92 NSCLC was over 100 µM; with SK-MEL-5 melanoma, 31.3 µM; in the experiment with NCI/ADR-RES ovarian, over 100 µM; with OVCAR-8 ovarian, over 100 µM.

Turning to `CCCCN(CCCC)P(=O)(Oc1ccccc1)Oc1ccccc1`, the GI50 with OVCAR-3 ovarian was 6.44 µM; with KM12 colon it was 8.1 µM; in the experiment on SR leukemia, 7.34 µM; in the experiment with HOP-62 NSCLC it was 14 µM; in the experiment on K-562 leukemia, 7.01 µM; in the experiment with DU-145 prostate, 11.1 µM. Also, the GI50 was 11.5 µM in the experiment with SK-MEL-5 melanoma, 5.23 µM in the experiment with NCI/ADR-RES ovarian and 11.1 µM in the experiment with OVCAR-8 ovarian. Also, the TGI with OVCAR-3 ovarian is 18.7 µM; with KM12 colon, 21.4 µM; in the experiment on SR leukemia, 68.5 µM; with HOP-62 NSCLC, 27.7 µM; with K-562 leukemia it was over 100 µM; in the experiment with DU-145 prostate, 24 µM. For the same compound, the TGI in the experiment on SK-MEL-5 melanoma was 23.7 µM; with NCI/ADR-RES ovarian, 18.7 µM; in the experiment on OVCAR-8 ovarian, 27.4 µM.

As for `O=C1OC2(c3ccc(O)cc3Oc3cc(O)ccc32)c2cccc3cccc1c23`, the GI50 in the experiment with KM12 colon was 23.2 µM; in the experiment on SR leukemia it was 27.5 µM; in the experiment with HOP-62 NSCLC it was 17 µM; in the experiment on K-562 leukemia, 33.2 µM; in the experiment with DU-145 prostate, 18.9 µM; in the experiment with HOP-92 NSCLC, 19 µM. For the same compound, the GI50 in the experiment on SK-MEL-5 melanoma was 14.6 µM; with NCI/ADR-RES ovarian, 31.7 µM; in the experiment with OVCAR-8 ovarian, 17.4 µM. The TGI with KM12 colon is 57.8 µM; with SR leukemia it was over 100 µM; in the experiment on HOP-62 NSCLC, 33.9 µM; with K-562 leukemia, over 100 µM; with DU-145 prostate, 36.9 µM; in the experiment with HOP-92 NSCLC, 97.6 µM. The results for the TGI with SK-MEL-5 melanoma, with NCI/ADR-RES ovarian and in the experiment on OVCAR-8 ovarian were 28 µM, over 100 µM and 36.9 µM, respectively.

Take `Cc1ccc(/C(=N/NS(=O)(=O)c2cc(C)c(Cl)cc2Cl)Sc2cc(Cl)c(C)cc2S(N)(=O)=O)cc1`: the GI50 is 59 µM in the experiment on OVCAR-3 ovarian; over 100 µM in the experiment with KM12 colon; 41 µM with SR leukemia; over 100 µM in the experiment with HOP-62 NSCLC; 70.1 µM with K-562 leukemia; 49.7 µM in the experiment on DU-145 prostate. Besides, the GI50 in the experiment on SK-MEL-5 melanoma, with NCI/ADR-RES ovarian and in the experiment on OVCAR-8 ovarian was over 100 µM each time. Also, the TGI in the experiment with OVCAR-3 ovarian, in the experiment with KM12 colon, in the experiment with SR leukemia, in the experiment on HOP-62 NSCLC, in the experiment on K-562 leukemia and in the experiment on DU-145 prostate was over 100 µM each time. The TGI in the experiment with SK-MEL-5 melanoma, with NCI/ADR-RES ovarian and with OVCAR-8 ovarian was over 100 µM in each case.

Regarding `Oc1nc(N2CCOCC2)sc1/C=C1\C=Nc2ccccc21`, the GI50 is over 100 µM in the experiment with OVCAR-3 ovarian; over 100 µM in the experiment with KM12 colon; 82 µM with SR leukemia; over 100 µM with HOP-62 NSCLC; over 100 µM in the experiment with K-562 leukemia; over 100 µM in the experiment with DU-145 prostate. Moreover, the GI50 in the experiment on SK-MEL-5 melanoma, in the experiment on NCI/ADR-RES ovarian and in the experiment with OVCAR-8 ovarian was over 100 µM throughout. Besides, the TGI with OVCAR-3 ovarian, with KM12 colon, in the experiment with SR leukemia, in the experiment on HOP-62 NSCLC, in the experiment with K-562 leukemia and in the experiment with DU-145 prostate was over 100 µM throughout. Besides, the TGI with SK-MEL-5 melanoma, in the experiment with NCI/ADR-RES ovarian and in the experiment with OVCAR-8 ovarian was over 100 µM each time.

`ClCc1ccccc1Cn1cnc2nc(Cl)nc(Cl)c21`: the GI50 in the experiment on OVCAR-3 ovarian was 5.29 µM; in the experiment with KM12 colon it was 5.93 µM; in the experiment with SR leukemia, 0.64 µM; with HOP-62 NSCLC, 2.35 µM; in the experiment on K-562 leukemia, 0.239 µM; in the experiment with DU-145 prostate, 0.548 µM. Moreover, the GI50 in the experiment with SK-MEL-5 melanoma is 0.369 µM; with NCI/ADR-RES ovarian, 1.07 µM; with OVCAR-8 ovarian it was 2.54 µM. In addition, the TGI in the experiment with OVCAR-3 ovarian is 12.3 µM; with KM12 colon, 24.2 µM; with SR leukemia, 5.66 µM; in the experiment on HOP-62 NSCLC it was 4.4 µM; with K-562 leukemia, 2.95 µM; in the experiment with DU-145 prostate, 1.33 µM. Besides, the TGI stood at 0.997 µM in the experiment with SK-MEL-5 melanoma, 3.96 µM in the experiment on NCI/ADR-RES ovarian and 8.88 µM with OVCAR-8 ovarian.
